Patent US20250171414A1, “COMPOUND SERVING AS MASP-2 INHIBITOR, PHARMACEUTICAL COMPOSITION, PREPARATION METHOD THEREFOR, AND USE THEREOF” (WUHAN CREATERNA SCIENCE AND TECHNOLOGY CO., LTD., priority 2022, published 2025)
Where two headings read alike, the source gives them in different places.

How the values were obtained:
[1] = test system: lectin pathway (MBL) in human serum; experiment: Inhibition of activity of lectin pathway (MBL) in human serum (WIESLAB Complement System MBL Pathway kit); assay type: biochemical; settings: 1% human serum
Method: The inhibition of the activity of the lectin pathway (MBL) in human serum by compounds was detected using a WIESLAB® Complement System MBL Pathway kit (SVAR, COMPLMP320). Test compounds were each serially diluted in a buffer (Diluent MP), and 1% human serum was incubated with the diluted compound solution for 15 min at room temperature. 100 μL of the mixture was added to a microplate and incubated at 37° C. for 60 min. The liquid in the wells was discarded, and the microplate was washed three times with a washing solution. A Conjugate antibody solution was added at 100 μL/well, and the resulting mixture was incubated for 30 min at 25° C. The liquid in the wells was discarded, and the microplate was washed three times with a washing solution; a substrate solution was added at 100 μL/well, and the resulting mixture was incubated for 30 min at 25° C.; the terminator was added at 50 μL/well, and the absorbance at 405 nm was detected within 30 min by using a microplate reader.

[2] = In vivo pharmacokinetic study in SD rats; settings: clear
Method: After adaptive feeding, the SPF SD rats were each subjected to a single administration of 1 mg/kg or 3 mg/kg of the compound of the present disclosure intragastrically or by tail vein bolus injection. Plasma was collected at specific time points after administration, and the concentration of the compound in plasma was detected by LC-MS/MS (AB Sciex Qtrap 4500).

[3] = Sprague-Dawley (SD), rat, plasma, 1 mg/kg, IV, not fasting
[4] = Sprague-Dawley (SD), rat, plasma, 1 mg/kg, IV, not fasting, read-out: Cmax
[5] = Sprague-Dawley (SD), rat, plasma, 1 mg/kg, PO, fasting
[6] = Sprague-Dawley (SD), rat, plasma, 1 mg/kg, PO, fasting, read-out: Cmax

Compound	IC50 [1] [nM]	AUC(0-t) [2, 3] [ng·h/mL]	half-life [2, 3] [h]	Cmax [2, 4] [ng/mL]	AUC(0-t) [2, 5] [ng·h/mL]	half-life [2, 5] [h]	Cmax [2, 6] [ng/mL]	further results
C[C@H](NC(=O)C1C=C(c2ccc(F)cc2)CCN1)C(=O)N[C@@H]1CCc2nc(N)ccc21 (single isomer, unassigned) [Compound L064-IS-02]	7.57	15600 ± 5150	4.18 ± 1.02	16000 ± 2070	2630 ± 245	5.57 ± 1.46	875 ± 155	
C[C@H](NC(=O)[C@@H]1C=C(c2ccc(Cl)cc2)CCN1)C(=O)N[C@@H]1CCc2nc(N)ccc21 (single isomer, unassigned) [Compound L066-IS-02]	9.52	17100 ± 4640	4.51 ± 1.29	15900 ± 1070	3240 ± 233	4.93 ± 0.51	1140 ± 164	
C[C@H](NC(=O)[C@@H]1C=C(c2ccc(F)c(F)c2)CCN1)C(=O)N[C@@H]1CCc2nc(N)ccc21 (single isomer, unassigned) [Compound L069-IS-02]	17.4	20000 ± 3840	3.39 ± 0.17	15700 ± 1130	6930 ± 968	3.37	1190 ± 162	
C[C@H](NC(=O)[C@@H]1C=C(c2ccc(F)cc2F)CCN1)C(=O)N[C@@H]1CCc2nc(N)ccc21 (single isomer, unassigned) [Compound L076-IS-02]	11.6	25900 ± 556	5.88 ± 0.27	22500 ± 1030	6970 ± 1210	4.29 ± 0.28	1350 ± 423	
C[C@H](NC(=O)[C@H]1C[C@H](Cc2ccc(Cl)cc2)CN1)C(=O)NC1CCc2nc(N)ccc21 (stereo partly drawn) [Compound L003, (2R,4S)—N-((2S)-1-((2-amino-6,7-dihydro-5H-cyclopenta[b]pyridin-5-yl)amino)-1-oxopropan-2-yl)-4-(4-chlorobenzyl) pyrrolidine-2-carboxamide]	5.17							AUClast ([2]; 1 mg/kg, IV, not fasting): 95060 ± 770 ng·h/mL; Cmax ([2]; 1 mg/kg, IV, not fasting): 25400 ± 1940 ng/mL; T1/2 ([2]; 1 mg/kg, IV, not fasting): 5.84 ± 0.55 h; AUClast ([2]; 1 mg/kg, PO, fasting): 11167 ± 1986 ng·h/mL; Cmax ([2]; 1 mg/kg, PO, fasting): 1777 ± 394 ng/mL; T1/2 ([2]; 1 mg/kg, PO, fasting): 5.89 h
C[C@H](NC(=O)[C@H]1C[C@H](Cc2ccc(F)c(Cl)c2)CN1)C(=O)NC1CCc2nc(N)ccc21 (stereo partly drawn) [Compound L012, (2R,4S)—N-((2S)-1-((2-amino-6,7-dihydro-5H-cyclopenta[b]pyridin-5-yl)amino)-1-oxopropan-2-yl)-4-(3-chloro-4-fluorobenzyl) pyrrolidine-2-carboxamide]	4.06							AUClast ([2]; 1 mg/kg, IV, not fasting): 97054 ± 1914 ng·h/mL; Cmax ([2]; 1 mg/kg, IV, not fasting): 26933 ± 1167 ng/mL; T1/2 ([2]; 1 mg/kg, IV, not fasting): 12.0 ± 3.72 h; AUClast ([2]; 1 mg/kg, PO, fasting): 11618 ± 919 ng·h/mL; Cmax ([2]; 1 mg/kg, PO, fasting): 1777 ± 98.2 ng/mL; T1/2 ([2]; 1 mg/kg, PO, fasting): 12.7 h
C[C@H](NC(=O)[C@H]1C[C@H](Cc2cccc(Cl)c2)CN1)C(=O)NC1CCc2nc(N)ccc21 (stereo partly drawn) [Compound L014, (2R,4S)—N-((2S)-1-((2-amino-6,7-dihydro-5H-cyclopenta[b]pyridin-5-yl)amino)-1-oxopropan-2-yl)-4-(3-chlorobenzyl) pyrrolidine-2-carboxamide]	2.71							AUClast ([2]; 1 mg/kg, IV, not fasting): 89916 ± 4999 ng·h/mL; Cmax ([2]; 1 mg/kg, IV, not fasting): 24633 ± 167 ng/mL; T1/2 ([2]; 1 mg/kg, IV, not fasting): 7.81 ± 1.16 h; AUClast ([2]; 1 mg/kg, PO, fasting): 13180 ± 3323 ng·h/mL; Cmax ([2]; 1 mg/kg, PO, fasting): 1967 ± 568 ng/mL; T1/2 ([2]; 1 mg/kg, PO, fasting): 12.5 h
C[C@H](NC(=O)[C@H]1CC(C(F)(F)c2ccc(F)cc2)CN1)C(=O)N[C@@H]1CCc2nc(N)ccc21 (stereo partly drawn) [Compound L050, (2R)—N—((S)-1-(((R)-2-amino-6,7-dihydro-5H-cyclopenta[b]pyridin-5-yl)amino)-1-oxopropan-2-yl)-4-(difluoro (4-fluorophenyl)methyl) pyrrolidine-2-carboxamide]	2.64							AUClast ([2]; 1 mg/kg, IV, not fasting): 16723 ± 860 ng·h/mL; Cmax ([2]; 1 mg/kg, IV, not fasting): 27167 ± 1299 ng/mL; T1/2 ([2]; 1 mg/kg, IV, not fasting): 2.13 ± 0.25 h; AUClast ([2]; 1 mg/kg, PO, fasting): 3638 ± 335 ng·h/mL; Cmax ([2]; 1 mg/kg, PO, fasting): 1373 ± 162 ng/mL; T1/2 ([2]; 1 mg/kg, PO, fasting): 2.21 ± 0.27 h
Cc1cc(F)ccc1C1=C[C@@H](C(=O)N[C@@H](C)C(=O)N[C@@H]2CCc3nc(N)ccc32)NCC1 [Compound L074-IS-02, (S)-N-((S)-1-(((R)-2-amino-6,7-dihydro-5H-cyclopenta[b]pyridin-5-yl)amino)-1-oxopropan-2-yl)-4-(4-fluoro-2-methylphenyl)-1,2,5,6-tetrahydropyridine-2-carboxamide]	2.79							
C[C@H](NC(=O)[C@@H]1C=C(c2ccc(F)cc2Cl)CCN1)C(=O)N[C@@H]1CCc2nc(N)ccc21 [Compound L075-IS-02, (S)-N-((S)-1-(((R)-2-amino-6,7-dihydro-5H-cyclopenta[b]pyridin-5-yl)amino)-1-oxopropan-2-yl)-4-(2-chloro-4-fluorophenyl)-1,2,5,6-tetrahydropyridine-2-carboxamide]	4.89							
C[C@H](NC(=O)[C@@H]1C=C(c2ccc(F)c(C(F)F)c2)CCN1)C(=O)N[C@@H]1CCc2nc(N)ccc21 [Compound L078-IS-02, (S)—N—((S)-1-(((R)-2-amino-6,7-dihydro-5H-cyclopenta[b]pyridin-5-yl)amino)-1-oxopropan-2-yl)-4-(3-(difluoromethyl)-4-fluorophenyl)-1,2,5,6-tetrahydropyridine-2-carboxamide]	16.3							
C[C@H](NC(=O)[C@@H]1C=C(c2ccc(F)cc2CF)CCN1)C(=O)N[C@@H]1CCc2nc(N)ccc21 [Compound L079-IS-02, (S)—N—((S)-1-(((R)-2-amino-6,7-dihydro-5H-cyclopenta[b]pyridin-5-yl)amino)-1-oxopropan-2-yl)-4-(4-fluoro-2-(fluoromethyl)phenyl)-1,2,5,6-tetrahydropyridine-2-carboxamide]	2.9							
C[C@H](NC(=O)[C@@H]1C=C(c2ccc(F)cc2C(F)F)CCN1)C(=O)N[C@@H]1CCc2nc(N)ccc21 [Compound L080-IS-02, (S)—N—((S)-1-(((R)-2-amino-6,7-dihydro-5H-cyclopenta[b]pyridin-5-yl)amino)-1-oxopropan-2-yl)-4-(2-(difluoromethyl)-4-fluorophenyl)-1,2,5,6-tetrahydropyridine-2-carboxamide]	2.87							
C[C@H](NC(=O)[C@@H]1C=C(c2cccc(Cl)c2)CCN1)C(=O)N[C@@H]1CCc2nc(N)ccc21 [Compound L081-IS-02, (S)—N—((S)-1-(((R)-2-amino-6,7-dihydro-5H-cyclopenta[b]pyridin-5-yl)amino)-1-oxopropan-2-yl)-4-(3-chlorophenyl)-1,2,5,6-tetrahydropyridine-2-carboxamide]	7.41							
C[C@H](NC(=O)[C@H]1C=C(c2ccccc2F)CCN1)C(=O)N[C@@H]1CCc2nc(N)ccc21 [Compound L082, (R)—N—((S)-1-(((R)-2-amino-6,7-dihydro-5H-cyclopenta[b]pyridin-5-yl)amino)-1-oxopropan-2-yl)-4-(2-fluorophenyl)-1,2,5,6-tetrahydropyridine-2-carboxamide]	8.85	24700 ± 1030	3.21 ± 0.19	18600 ± 1960	6110 ± 1210	2.85 ± 0.05	1430 ± 283	
C[C@H](NC(=O)[C@H]1C=C(c2cccc(F)c2)CCN1)C(=O)N[C@@H]1CCc2nc(N)ccc21 [Compound L083, (R)—N—((S)-1-(((R)-2-amino-6,7-dihydro-5H-cyclopenta[b]pyridin-5-yl)amino)-1-oxopropan-2-yl)-4-(3-fluorophenyl)-1,2,5,6-tetrahydropyridine-2-carboxamide]	10.6	16400 ± 936	2.71 ± 0.23	18000 ± 850	3360 ± 778	2.97 ± 0.07	1090 ± 295	
C[C@H](NC(=O)[C@H]1C=C(c2cccc(F)c2F)CCN1)C(=O)N[C@@H]1CCc2nc(N)ccc21 [Compound L084, (R)—N—((S)-1-(((R)-2-amino-6,7-dihydro-5H-cyclopenta[b]pyridin-5-yl)amino)-1-oxopropan-2-yl)-4-(2,3-difluorophenyl)-1,2,5,6-tetrahydropyridine-2-carboxamide]	13.3	26000 ± 1480	3.68 ± 0.22	18200 ± 929	6880 ± 1430	3.09 ± 0.05	2140 ± 664	
Nc1ccc2c(n1)CC[C@H]2NC(=O)[C@@H]1C[C@@H]2C[C@@H]2N1C(=O)[C@H]1C[C@H](Cc2ccc(F)cc2)CN1 [Compound L104-IS-02, (1S,3S,5S)—N—((R)-2-amino-6,7-dihydro-5H-cyclopenta [b]pyridin-5-yl)-2-((2R,4S)-4-(4-fluorobenzyl)pyrrolidine-2-carbonyl)-2-azabicyclo[3.1.0]hexane-3-carboxamide]	0.97							
(2R)—N-((2S)-1-((2-amino-6,7-dihydro-5H-cyclopenta[b]pyridin-5-yl)amino)-1-oxopropan-2-yl)-4-phenyl-1,2,3,6-tetrahydropyridine-2-carboxamide [Compound L023-IS-02]	3.36							AUClast ([2]; 1 mg/kg, IV, not fasting): 21567 ± 2996 ng·h/mL; Cmax ([2]; 1 mg/kg, IV, not fasting): 17400 ± 1026 ng/mL; T1/2 ([2]; 1 mg/kg, IV, not fasting): 3.93 ± 0.18 h; AUClast ([2]; 3 mg/kg, PO, fasting): 17996 ± 2579 ng·h/mL; Cmax ([2]; 3 mg/kg, PO, fasting): 4340 ± 162 ng/mL; T1/2 ([2]; 3 mg/kg, PO, fasting): 4.20 ± 0.54 h
